Laboratory results taken from patent publication US9932309B2, “2-oxo-3,4-dihydropyridine-5-carboxylates and their use” (UNIVERSITE DE LILLE 2 DROIT ET SANTE, priority 2014, dated 2018).
Where a name gives a salt, the structure may show the parent alone.

Key:
mTGR5 = molecular target: T1, mTGR5 (Mus musculus, UniProt Q80SS6); experiment: TGR5/CRE Luciferase Assay (mTGR5); assay type: cell-based; conditions: for EC50: HEK 293 cells co-transfected with pCMV AC6-TGR5m and pCRE TA-Luciferase, overnight incubation; for mTGR5 % trans: percentage of the 10 μM LCA value, HEK 293 cells transfected with mTGR5
T1 construct: expressed in transfected cells; host or cells: HEK293 cells, transiently co-transfected with the pCRE TA-Luciferase reporter
T1 sequence (Q80SS6 1-329): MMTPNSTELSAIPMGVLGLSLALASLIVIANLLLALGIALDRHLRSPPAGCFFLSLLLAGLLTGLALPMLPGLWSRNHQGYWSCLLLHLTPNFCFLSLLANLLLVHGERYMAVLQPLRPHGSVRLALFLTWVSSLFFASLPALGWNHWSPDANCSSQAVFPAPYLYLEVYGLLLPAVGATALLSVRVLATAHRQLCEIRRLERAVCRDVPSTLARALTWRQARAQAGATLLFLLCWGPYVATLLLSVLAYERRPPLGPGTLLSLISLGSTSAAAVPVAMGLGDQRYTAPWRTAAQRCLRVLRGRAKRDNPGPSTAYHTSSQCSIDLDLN
Description: (§1) TGR5/CRE Luciferase Assay
(§2) In the following Tables TGR5 activation by compounds of the invention and subsequent increase in intracellular cAMP were evaluated using a luciferase reporter gene assay. Human embryonic kidney (HEK) 293 cells were transiently co-transfected with pCMV tag4b-TGR5 h (to follow hTGR5 activation) or pCMV AC6-TGR5m (to follow mTGR5 activation) expression plasmids and the pCRE TA-Luciferase reporter plasmid using the JET PEI reagent (Polyplus transfection). Transfected cells were seeded in 96-well plates and incubated overnight with the test compounds at increasing concentrations tested in duplicate. Lithocolic acid (LCA) at 10 μM was used as a positive reference compound. The cAMP-dependent luciferase expression was followed using the BrightGlo reagent according to the manufacturer (Promega) instructions. Luminescence was read with a Mithras plate reader (Berthold) or a Victor3™ V1420 (Perkin Elmer). […] Concentration-response curves were fitted by a nonlinear regression analysis to a 4 parameter logistic equation

hTGR5 = molecular target: T2, hTGR5 (Homo sapiens, UniProt Q8TDU6); experiment: TGR5/CRE Luciferase Assay (hTGR5); assay type: cell-based; conditions: for EC50: HEK 293 cells co-transfected with pCMV tag4b-TGR5h and pCRE TA-Luciferase, overnight incubation; for hTGR5 % trans: percentage of the 10 μM LCA value, HEK 293 cells transfected with hTGR5
T2 construct: expressed in transfected cells; host or cells: HEK293 cells, transiently co-transfected with the pCRE TA-Luciferase reporter
T2 sequence (Q8TDU6 1-330): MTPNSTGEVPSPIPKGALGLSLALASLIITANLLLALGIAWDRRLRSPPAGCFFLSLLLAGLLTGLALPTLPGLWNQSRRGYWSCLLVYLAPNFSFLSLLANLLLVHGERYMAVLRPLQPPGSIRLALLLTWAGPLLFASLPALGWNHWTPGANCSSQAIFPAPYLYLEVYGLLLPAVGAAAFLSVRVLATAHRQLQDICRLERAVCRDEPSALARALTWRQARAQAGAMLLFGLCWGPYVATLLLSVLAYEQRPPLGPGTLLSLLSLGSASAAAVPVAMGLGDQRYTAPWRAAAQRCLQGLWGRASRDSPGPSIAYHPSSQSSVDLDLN
Description: as §1, §2

| Structure (SMILES) | EC50 (mTGR5) | mTGR5 % trans (mTGR5) | EC50 (hTGR5) | hTGR5 % trans (hTGR5) |
| --- | --- | --- | --- | --- |
| CC1=C(C(=O)OCc2ccc(OCCCCS(=O)(=O)O)cc2)[C@H](c2ccc(Cl)cc2)CC(=O)N1C[C@H]1CCCO1 [Example 169, Ammonium; 4-[4-[[(4S)-4-(4-chlorophenyl)-6-methyl-2-oxo-1-[[(2R)-tetrahydrofuran-2-yl]methyl]-3,4-dihydropyridine-5-carbonyl]oxymethyl]phenoxy]butane-1-sulfonate] | 0.009 µM | 103% | 0.03 µM | 103% |
| CC1=C(C(=O)OCc2ccccc2)C(c2ccc(Cl)cc2)CC(=O)N1CCN1CCCC1 (centres unmarked) [Compound 55, Benzyl 4-(4-chlorophenyl)-6-methyl-2-oxo-1-(2-pyrrolidin-1-ylethyl)-3,4-dihydropyridine-5-carboxylate] | – | 5% | 4.5 µM | 47% |
| CCOC(=O)C1=C(c2ccccc2)N(C)C(=O)CC1c1ccc(Cl)cc1 (centres unmarked) [Example 20, Ethyl 4-(4-chlorophenyl)-1-methyl-2-oxo-6-phenyl-3,4-dihydropyridine-5-carboxylate] | 2.5 µM | 53% | 3 µM | 42% |
| COc1ccccc1COC(=O)C1=C(C)N(Cc2ccco2)C(=O)CC1c1ccc(Cl)cc1 (centres unmarked) [Compound 66] | 0.1 µM | 78% | 0.2 µM | 62% |
| COCCN1C=C(C(=O)NCc2ccccc2)C(c2ccc(Cl)cc2)CC1=O (centres unmarked) [Compound 33, N-benzyl-4-(4-chlorophenyl)-1-(2-methoxyethyl)-2-oxo-3,4-dihydropyridine-5-carboxamide] | 11 µM | 14% | 6.4 µM | 42% |
| COc1ccccc1COC(=O)C1=C(C)N(C[C@H]2CCCO2)C(=O)C[C@H]1c1cccnc1Cl (racemic) [Example 151, (2-Methoxyphenyl)methyl (4R)-4-(2-chloro-3-pyridyl)-6-methyl-2-oxo-1-[[(2R)-tetrahydrofuran-2-yl]methyl]-3,4-dihydropyridine-5-carboxylate and (2-methoxyphenyl)methyl (4S)-4-(2-chloro-3-pyridyl)-6-methyl-2-oxo-1-[[(2S)-tetrahydrofuran-2-yl]methyl]-3,4-dihydropyridine-5-carboxylate] | 12.5 µM | 44% | 2.2 µM | 87% |
| CC1=C(C(=O)OCc2ccccc2)C(c2ccc(Cl)cc2)CC(=O)N1CCN (centres unmarked) [Compound 53, Hydrochloride salt of benzyl 1-(2-aminoethyl)-4-(4-chlorophenyl)-6-methyl-2-oxo-3,4-dihydropyridine-5-carboxylate] | – | 0% | 4.3 µM | 16% |
| COc1ccccc1COC(=O)C1=C(C)N(C[C@H]2CCCO2)C(=O)C[C@H]1c1ccc2nsnc2c1 (racemic) [Example 152, (2-Methoxyphenyl)methyl (4S)-4-(2,1,3-benzothiadiazol-5-yl)-6-methyl-2-oxo-1-[[(2R)-tetrahydrofuran-2-yl]methyl]-3,4-dihydropyridine-5-carboxylate and (2-methoxyphenyl)methyl (4R)-4-(2,1,3-benzothiadiazol-5-yl)-6-methyl-2-oxo-1-[[(2S)-tetrahydrofuran-2-yl]methyl]-3,4-dihydropyridine-5-carboxylate] | 0.048 µM | 66% | 0.03 µM | 106% |
| COCCN1C(=O)CC(c2ccc(Cl)cc2)C(C(=O)OCc2cccc(C#N)c2)=C1C (centres unmarked) [Example 94, (3-cyanophenyl)methyl 4-(4-chlorophenyl)-1-(2-methoxyethyl)-6-methyl-2-oxo-3,4-dihydropyridine-5-carboxylate] | 0.4 µM | 65% | 0.6 µM | 61% |
| COCCN1C(=O)CC(c2ccc(Cl)cc2)C(C(=O)OCC(=O)c2ccccc2)=C1C (centres unmarked) [Example 112, Phenacyl 4-(4-chlorophenyl)-1-(2-methoxyethyl)-6-methyl-2-oxo-3,4-dihydropyridine-5-carboxylate] | 3.2 µM | 46% | 5.2 µM | 20% |
| CC1=C(C(=O)OCc2ccccc2)C(c2ccc(Cl)cc2)CC(=O)N1CC(=O)OC(C)(C)C (centres unmarked) [Compound 58, Benzyl 1-(2-tert-butoxy-2-oxo-ethyl)-4-(4-chlorophenyl)-6-methyl-2-oxo-3,4-dihydropyridine-5-carboxylate] | 0.42 µM | 70% | 1.34 µM | 50% |
| COc1ccccc1COC(=O)C1=C(C)N(C[C@H]2CCCO2)C(=O)C[C@H]1c1ccc(C(F)(F)F)nc1 (racemic) [Example 150, (2-Methoxyphenyl)methyl (4S)-6-methyl-2-oxo-1-[[(2R)-tetrahydrofuran-2-yl]methyl]-4-[6-(trifluoromethyl)-3-pyridyl]-3,4-dihydropyridine-5-carboxylate and (2-methoxyphenyl)methyl (4R)-6-methyl-2-oxo-1-[[(2S)-tetrahydrofuran-2-yl]methyl]-4-[6-(trifluoromethyl)-3-pyridyl]-3,4-dihydropyridine-5-carboxylate] | 0.1 µM | 99% | 0.025 µM | 110% |
| COCCN1C(=O)CC(c2ccc(Cl)cc2)C(C(=O)OCc2ccc(C(F)(F)F)cc2)=C1C (centres unmarked) [Example 92, [4-(trifluoromethyl)phenyl]methyl 4-(4-chlorophenyl)-1-(2-methoxyethyl)-6-methyl-2-oxo-3,4-dihydropyridine-5-carboxylate] | 0.3 µM | – | – | – |

The next lines start with the values.

| EC50 (mTGR5) | mTGR5 % trans (mTGR5) | EC50 (hTGR5) | hTGR5 % trans (hTGR5) | Structure (SMILES) |
| --- | --- | --- | --- | --- |
| – | 3% | 3.6 µM | 50% | CC1=C(C(=O)OCc2ccccc2)C(c2ccc(Cl)cc2)CC(=O)N1CCN1CCCCC1 (centres unmarked) [Compound 56, Benzyl 4-(4-chlorophenyl)-6-methyl-2-oxo-1-[2-(1-piperidyl)ethyl]-3,4-dihydropyridine-5-carboxylate] |
| 0.4 µM | 89% | 0.6 µM | 72% | COCCN1C(=O)CC(c2ccc(Cl)cc2)C(C(=O)OCc2ccc(C)cc2)=C1C (centres unmarked) [Example 100, p-tolylmethyl 4-(4-chlorophenyl)-1-(2-methoxyethyl)-6-methyl-2-oxo-3,4-dihydropyridine-5-carboxylate] |
| 0.8 µM | 53% | 0.6 µM | 58% | COCCN1C(=O)CC(c2ccc(Cl)cc2)C(C(=O)OCc2ccccc2C#N)=C1C (centres unmarked) [Example 93, (2-cyanophenyl)methyl 4-(4-chlorophenyl)-1-(2-methoxyethyl)-6-methyl-2-oxo-3,4-dihydropyridine-5-carboxylate] |
| 1.5 µM | 54% | 1.1 µM | 75% | C=CCN1C(=O)CC(c2ccc(Cl)cc2)C(C(=O)OCc2ccccc2)=C1C (centres unmarked) [Compound 38, Benzyl 1-allyl-4-(4-chlorophenyl)-6-methyl-2-oxo-3,4-dihydropyridine-5-carboxylate] |
| 1.3 µM | 34% | 1.1 µM | 57% | COCCN1C(=O)CC(c2ccc(Cl)cc2)C(C(=O)OCc2ccccc2C(F)(F)F)=C1C (centres unmarked) [Example 90, [2-(trifluoromethyl)phenyl]methyl 4-(4-chlorophenyl)-1-(2-methoxyethyl)-6-methyl-2-oxo-3,4-dihydropyridine-5-carboxylate] |
| 0.5 µM | 36% | 1.22 µM | 43% | O=C1CC(c2ccc(Cl)cc2)C(C(=O)NCc2ccccc2)=CN1 (centres unmarked) [Compound 25, N-benzyl-4-(4-chlorophenyl)-2-oxo-3,4-dihydro-1H-pyridine-5-carboxamide] |
| 10.4 µM | 45% | 7.4 µM | 65% | CC1=C(C(=O)OCc2ccccc2)C(c2ccc(C)cc2)CC(=O)N1 (centres unmarked) [Compound 3, 2-Methyl-6-oxo-4-p-tolyl-1,4,5,6-tetrahydro-pyridine-3-carboxylic acid benzyl ester] |
